Among the data in article PMC11224940, “矩阵热转移技术鉴定有机酸类代谢物的结合蛋白质” (Chinese Journal of Chromatography, 2024) are EC50 values, retold here.

Broadly, the EC50 is the concentration that produces a half-maximal response.

The target of the assay is T1, FH (富马酸脱氢酶) (Homo sapiens, UniProt P07954).
T1 construct: endogenous protein in desalted HeLa cell lysate, native, no tag
T1 sequence (P07954 45-510): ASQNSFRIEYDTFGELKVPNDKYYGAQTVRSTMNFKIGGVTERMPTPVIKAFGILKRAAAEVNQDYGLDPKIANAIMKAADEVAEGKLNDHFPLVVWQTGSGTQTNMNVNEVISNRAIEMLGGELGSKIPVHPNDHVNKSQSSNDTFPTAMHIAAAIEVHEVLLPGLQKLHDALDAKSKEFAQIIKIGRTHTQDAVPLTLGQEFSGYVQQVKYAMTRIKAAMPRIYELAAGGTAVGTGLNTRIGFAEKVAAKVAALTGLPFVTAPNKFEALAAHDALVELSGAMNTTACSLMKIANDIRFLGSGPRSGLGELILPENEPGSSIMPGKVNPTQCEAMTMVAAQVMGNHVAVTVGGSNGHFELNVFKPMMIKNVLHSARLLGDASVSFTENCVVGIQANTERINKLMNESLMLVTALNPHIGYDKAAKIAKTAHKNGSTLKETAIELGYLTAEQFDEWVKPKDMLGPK
Put plainly: matrix thermal shift assay (mTSA), DIA proteomics, dose-response fit. As to conditions: desalted HeLa lysate in PBS, endogenous metabolites removed, 50 min room temperature, then 52 ℃ 3 min; 0.004-2 mmol/L ligand; thermal stabilisation; only four ligand concentrations; read-out: 亲和力 (EC50). It counts as biochemical.

`O=C(O)/C=C/C(=O)O` [富马酸]: the EC50 came to 548 µM.
